Test results as given in patent publication US20050239061A1, “Identification and use of effectors and allosteric molecules for the alteration of gene expression” (priority 2000, published 2005).
Like-named read-outs stand apart in the source and are kept apart here.

Key:
HIV RT = biological target: T1, HIV RT (Human immunodeficiency virus type 1 group M subtype B, UniProt P04585); settings: cited from earlier work
T1 construct: Atevirdine/nonnucleoside reverse

[1] = cited from earlier work; for Biodistribution: in vivo
[2] = in vivo; cited from earlier work
TA-50 ribozyme = test: Theophylline-dependent self-cleavage of ribozyme TA-50; type: biochemical; settings: FIG. 9
[3] = cited from earlier work

Molecule: COc1ccc2c(c1)N(C(=O)OC(C)C)[C@@H](CSC)C(=S)N2 [Talviraline]
- Other Pharmacology (HIV RT): Viral target, no other known activity
- Biodistribution [1]: Wide

Molecule: Cn1c(=O)c2[nH]cnc2n(C)c1=O [theophylline]
- Toxicity/Drug Interactions [2]: acceptable
- theophylline concentration giving highest cleavage activity of TA-50 ribozyme (TA-50 ribozyme): 10 to 50 µM

Molecule: CN1CCN(c2cc3c(cc2F)c(=O)c(C(=O)O)cn3-c2ccc(F)cn2)CC1.Cl [Fandofloxacin]
- Bioavailability ([3]; oral): Orally absorbed
- Toxicity/Drug Interactions [2]: Well tolerated, v. low phototoxicity
- Biodistribution [1]: Good organ distribution including muscle

Molecule: Cl.O=C(O)c1cn(C2CC2)c2c(Cl)c(N3C[C@@H]4CCCN[C@@H]4C3)c(F)cc2c1=O [Bay-y-3118]
- Bioavailability ([3]; oral): Orally absorbed
- Half life ([3]; oral): 11.4 h
- Tmax ([3]; oral): 1.3 h
- Toxicity/Drug Interactions [2]: No abnormal findings in humans

Molecule: O=C1NC(=O)C(Cc2ccc3cc(OCc4ccccc4F)ccc3c2)S1 (stereo not shown) [MCC-555]
- Bioavailability ([3]; in vivo, po): Oral
- Toxicity/Drug Interactions [2]: Liver toxicity (controversial)
- Biodistribution [1]: Muscle and adipose

Molecule: CSc1nc2cc(Cl)c(Oc3cccc(Cl)c3Cl)cc2[nH]1 [Triclabendazole]
- Bioavailability ([3]; oral): Oral
- Toxicity/Drug Interactions [2]: Low/none in humans
- Biodistribution [1]: Liver/metabolism important

Molecule: CCNc1cccnc1N1CCN(C(=O)c2cc3cc(OC)ccc3[nH]2)CC1 [Atevirdine]
- Other Pharmacology (HIV RT): Viral target, no other known activity
- Bioavailability ([3]; oral): well absorbed orally
- time to peak serum ([3]; oral): 30 to 60 min
- Biodistribution [1]: Widely distributed, crosses blood-brain
- maximum concentration of drug in serum ([1]; oral delivery): delivery): 7.3 uM

Molecule: Cc1oc(-c2ccccc2)nc1CCOc1ccc(C[C@H](Nc2ccccc2C(=O)c2ccccc2)C(=O)O)cc1 [GW-2570]
- Bioavailability ([3]; in vivo, po): Oral
- Biodistribution [1]: Muscle and adipose

B1: TA-50: theophylline-responsive self-cleaving hammerhead ribozyme sequence selected after seven cycles, SEQ ID NO:5 (nucleic acid)
chain: GGGAGAGGGAUCCAGCUGACGAGUACUGAAUACCAGCCGAAAGGCCCUUGGCAGGUUUGGUGAAACGCCUUCGGCGUCCUGGAUUAGAACUUC
modifications: listed as RNA, chemistry not given here
- self-cleaving ability (TA-50 ribozyme; presence of theophylline): strongly dependent on the presence of theophylline
